Here are results for two molecules from US6436902B1, “Therapeutic preparations for inhalation” (AstraZeneca AB, priority 1994, dated 2002).

The nature of data set [1]: Pharmacokinetic study: plasma concentration of PTH in dogs after inhalation of dry powder aerosol (RIA). The class given is in vivo, Beagle dogs. Particulars: for Plasma concentration of PTH: PTH 1-84, inhaled dose 14 μg/kg; for Shape of serum/plasma profile after inhalation: dry powder aerosol inhaled via endotracheal tube. The procedure:
The powder formulations were compressed in dust containers and generated continuously as dry powder aerosols by a Wright Dust Feed (WDF). The aerosols were generated by scraping off the formulations from the tablets in the dust containers. The mass flow through the WDF was 8.01/min.
The inhaled dose (ID) was determined by measuring the inspiratory tidal volume (ITV) and the PTH concentration during inhalation.
Beagle dogs (n=5, at each formulation) were starved for 16 hours before inhalation and the experiments were performed in the mornings.
Venous blood samples for determination of PTH concentration were taken from the jugular vein into heparinized vacutainer tubes (2 ml). The samples were collected before dosing and at 10, 15, 20, 30, 40, 60, 90, 120, 240 and 360 minutes after start (t=0) of inhalation. The whole blood samples were centrifuged immediately, alternatively kept in ice water for maximum 20 minutes before centrifugation, and the plasma (1 ml) was sampled for PTH analysis. PTH in plasma was analyzed using radioimmunoassay (RIA) kits.

Data set [2] deals with ovariectomized osteopenic rats. The experiment in a line: Bone effect: mineral density of the distal femur in ovariectomized osteopenic rats. It counts as in vivo. The following applies: inhalation, 4 weeks of administration starting 6 weeks post ovariectomy. As for the experimental part: The bone effect is measured in ovariectomized osteopenic rats as mineral density as weight/volume of the distal femur after 4 weeks of administration; starting 6 weeks post ovariectomy.

The conditions of data set [3]: rats, intratracheal (IT) administration, cited from earlier work; for Shape of serum profile: 90 minutes experiment.

Consider “PTH 1-84: Human parathyroid hormone, 84 amino acid protein (SEQ ID NO: 1); given as micronised dry powder with lactose and citrate”, for which the “Plasma concentration of PTH” value is 0.0083 nM in data set [1] (10 min after start of inhalation); 0.0114 nM in data set [1] (15 min after start of inhalation); 0.0116 nM in data set [1] (20 min after start of inhalation); 0.0096 nM in data set [1] (30 min after start of inhalation); 0.0079 nM in data set [1] (40 min after start of inhalation); 0.0058 nM in data set [1] (60 min after start of inhalation). For the same molecule, the “Plasma concentration of PTH” value worked out at 0.0041 nM in data set [1] (90 min after start of inhalation), 0.003 nM in data set [1] (120 min after start of inhalation), 0.0026 nM in data set [1] (360 min after start of inhalation) and 0.0034 nM in data set [1] (time 0 min (before dosing)). In addition, the “Shape of serum/plasma profile after inhalation” value in data set [1] is given as “pulsatile serum profile”; in data set [1] (listed as full-length PTH), “pulsative plasma profile”. The “Effect on femur bone formation (mineral density of the distal femur)” value in data set [2] is on record as “significant effect on femur bone formation”. Besides, the “Shape of serum profile” value in data set [3] is “plateau which did not diminish significantly during the 90 minutes”.
`CC[C@H](C)[C@H](NC(=O)[C@H](CCC(=O)O)NC(=O)[C@H](CO)NC(=O)[C@@H](NC(=O)[C@@H](N)CO)C(C)C)C(=O)N[C@@H](CCC(N)=O)C(=O)N[C@@H](CC(C)C)C(=O)N[C@@H](CCSC)C(=O)N[C@@H](Cc1cnc[nH]1)C(=O)N[C@@H](CC(N)=O)C(=O)N[C@@H](CC(C)C)C(=O)NCC(=O)N[C@@H](CCCCN)C(=O)N[C@@H](Cc1cnc[nH]1)C(=O)N[C@@H](CC(C)C)C(=O)N[C@@H](CC(N)=O)C(=O)N[C@@H](CO)C(=O)N[C@@H](CCSC)C(=O)N[C@@H](CCC(=O)O)C(=O)N[C@@H](CCCN=C(N)N)C(=O)N[C@H](C(=O)N[C@@H](CCC(=O)O)C(=O)N[C@@H](Cc1c[nH]c2ccccc12)C(=O)N[C@@H](CC(C)C)C(=O)N[C@@H](CCCN=C(N)N)C(=O)N[C@@H](CCCCN)C(=O)N[C@@H](CCCCN)C(=O)N[C@@H](CC(C)C)C(=O)N[C@@H](CCC(N)=O)C(=O)N[C@@H](CC(=O)O)C(=O)N[C@H](C(=O)N[C@@H](Cc1cnc[nH]1)C(=O)N[C@@H](CC(N)=O)C(=O)N[C@@H](Cc1ccccc1)C(=O)O)C(C)C)C(C)C` [PTH 1-34] returned a level at time molar at 10 min in data set [1] (beagle, dog, plasma, inhaled or intranasal, 4 ug/kg, PTH 1-34, inhaled dose 4.0 μg/kg, 10 min after start of inhalation) of 0.0304 nM. In data set [1] (beagle, dog, plasma, inhaled or intranasal, 4 ug/kg, PTH 1-34, inhaled dose 4.0 μg/kg, 15 min after start of inhalation), this molecule displayed a level at time molar at 0.25 h of 0.0474 nM. The level at time molar at 20 min in data set [1] (beagle, dog, plasma, inhaled or intranasal, 4 ug/kg, PTH 1-34, inhaled dose 4.0 μg/kg, 20 min after start of inhalation) was 0.0496 nM. The level at time molar at 0.5 h in data set [1] (beagle, dog, plasma, inhaled or intranasal, 4 ug/kg, PTH 1-34, inhaled dose 4.0 μg/kg, 30 min after start of inhalation) is 0.0446 nM. The same molecule displayed a level at time molar at 40 min in data set [1] (beagle, dog, plasma, inhaled or intranasal, 4 ug/kg, PTH 1-34, inhaled dose 4.0 μg/kg, 40 min after start of inhalation) of 0.0362 nM. This molecule also came in with a level at time molar at 1 h in data set [1] (beagle, dog, plasma, inhaled or intranasal, 4 ug/kg, PTH 1-34, inhaled dose 4.0 μg/kg, 60 min after start of inhalation) of 0.026 nM. For the same molecule, the level at time molar at 1.5 h in data set [1] (beagle, dog, plasma, inhaled or intranasal, 4 ug/kg, PTH 1-34, inhaled dose 4.0 μg/kg, 90 min after start of inhalation) is 0.017 nM. Further, the level at time molar at 2 h in data set [1] (beagle, dog, plasma, inhaled or intranasal, 4 ug/kg, PTH 1-34, inhaled dose 4.0 μg/kg, 120 min after start of inhalation) is 0.0126 nM. The molecule also showed a level at time molar at 4 h in data set [1] (beagle, dog, plasma, inhaled or intranasal, 4 ug/kg, PTH 1-34, inhaled dose 4.0 μg/kg, 240 min after start of inhalation) of 0.006 nM. In data set [1] (beagle, dog, plasma, inhaled or intranasal, 4 ug/kg, PTH 1-34, inhaled dose 4.0 μg/kg, 360 min after start of inhalation), the level at time molar at 6 h was found to be 0.0076 nM. Further, the level at time molar at 0 h in data set [1] (beagle, dog, plasma, inhaled or intranasal, 4 ug/kg, PTH 1-34, inhaled dose 4.0 μg/kg, time 0 min (before dosing)) is 0.008 nM. In addition, the “Shape of serum/plasma profile after inhalation” value in data set [1] is given as “pulsatile serum profile”. In data set [3], the “Shape of serum profile” value was “activity diminishing rapidly thereafter” and the “Time of serum peak” value was 15 min.
